Test results from US20240317749A1, “THERAPEUTIC COMPOUNDS” (priority 2021, published 2024).
In brackets after ≈: the same amount, converted by molar mass.

Experiments:
[1] = system: Methicillin-susceptible S. aureus (MSSA) ATCC 19636; assay: MIC assay, CLSI broth microdilution in CAMH broth; assay type: cell-based, Staphylococcus aureus
Experimental: (§1) MIC assays for various Gram-negative and Gram-positive strains were conducted in accordance with the CLSI guidelines for broth microdilution. A 96-well plate containing CAMH broth with 2-fold serial dilution of compounds was inoculated with log-phase bacterial at 5×10^5 CFU/mL. The final volume in each well was 100 μL. Each compound was tested in duplicate. The microtiter plates were incubated in an aerobic environment for 18 hours at 37° C. Then the bacterial growth was tested by reading the plate with a SpectraMax iD5 plate reader (Molecular Devices, Inc.) at 600 nm. The MIC was defined as the lowest compound concentration that inhibited bacteria growth.
(§2) The following Gram-negative and Gram-positive strains were used in the aerobic MIC procedure: • P. aeruginosa ATCC 27853 • A. baumannii ATCC 19606 • E. coli ATCC 25922 • E. coli W4573 • E. coli N43 • K. pneumoniae ATCC 10031 • K. pneumoniae ATCC 13883 • S. sonnei ATCC 29930 • P. mirabilis ATCC 29906 • Methicillin-susceptible S. aureus (MSSA) ATCC 19636 • Methicillin-resistant S. aureus (MRSA) ATCC 33951

E. coli ATCC 25922 = assay: MIC assay, CLSI broth microdilution in CAMH broth; assay type: cell-based, Escherichia coli
Experimental: as §1, §2

E. coli N43 = assay: MIC assay, CLSI broth microdilution in CAMH broth; assay type: cell-based, Escherichia coli
Experimental: as §1, §2

E. coli W4573 = assay: MIC assay, CLSI broth microdilution in CAMH broth; assay type: cell-based, Escherichia coli
Experimental: as §1, §2

P. mirabilis ATCC 29906 = assay: MIC assay, CLSI broth microdilution in CAMH broth; assay type: cell-based, Proteus mirabilis
Experimental: as §1, §2

[2] = system: Methicillin-resistant S. aureus (MRSA) ATCC 33591; assay: MIC assay, CLSI broth microdilution in CAMH broth; assay type: cell-based, Staphylococcus aureus
Experimental: as §1, with “growth. […]” for “growth.”

K. pneumoniae ATCC 10031 = assay: MIC assay, CLSI broth microdilution in CAMH broth; assay type: cell-based, Klebsiella pneumoniae; details: K. pneumonias ATCC 10031
Experimental: as §1, §2

K. pneumoniae ATCC 13883 = assay: MIC assay, CLSI broth microdilution in CAMH broth; assay type: cell-based, Klebsiella pneumoniae; details: K. pneumonias ATCC 13883
Experimental: as §1, §2

P. aeruginosa ATCC 27853 = assay: MIC assay, CLSI broth microdilution in CAMH broth; assay type: cell-based, Pseudomonas aeruginosa; details: P. aeruginosa ATCC 278538
Experimental: as §1, §2

[3] = system: N. gonorrhoeae ATCC 49226; assay: MIC assay for N. gonorrhoeae, broth microdilution in Todd-Hewitt (TH) broth; assay type: cell-based; details: Neisseria gonorrhoeae, ATCC49226; Antibacterial Activity against N. gonorrhoeae ATCC 49226 in TH
Excerpt: MIC assays for N. gonorrhoeae were done using the ATCC 49226 strain. The procedure guidelines recommended by the Clinical and Laboratory Standards Institute (CLSI) for the broth microdilution MIC assay were modified by substituting […]. Also, the recommended bacterial inoculum was modified to meet the high inoculum demands needed for N. gonorrhoeae growth. A 96-well plate containing TH broth with 2-fold serial dilution of compounds was inoculated with log-phase bacterial at 2.5×10^7 CFU/mL. The final volume in each well was 200 μL. Each compound was tested in duplicate. The microtiter plates were incubated in an […] environment for 24 hours at 37° C. using the candle jar technique. Then the bacterial growth was tested by reading the plate with a SpectraMax iD5 plate reader (Molecular Devices, Inc.) at 600 nm. The MIC was defined as the lowest compound concentration that inhibited bacteria growth.

SMILES | Intrinsic MIC in CAMH [1] | Intrinsic MIC in CAMH (E. coli ATCC 25922) | Intrinsic MIC in CAMH (E. coli N43) | Intrinsic MIC in CAMH (E. coli W4573) | Intrinsic MIC in CAMH (P. mirabilis ATCC 29906) | Intrinsic MIC in CAMH [2] | Intrinsic MIC in CAMH (K. pneumoniae ATCC 10031) | Intrinsic MIC in CAMH (K. pneumoniae ATCC 13883) | Intrinsic MIC in CAMH (P. aeruginosa ATCC 27853) | MIC [3] [µg/mL]
CC[C@H]1OC(=O)[C@H](C)[C@@H](O[C@H]2C[C@@](C)(OC)[C@@H](O)[C@H](C)O2)[C@H](C)[C@@H](O[C@@H]2O[C@H](C)C[C@H](N(C)C)[C@H]2O)[C@](C)(O)C[C@@H](C)CN(C)[C@H](C)[C@@H](O)[C@]1(C)O [AZM, azithromycin, reference compound] | 1¤ | 8¤ | 1¤ | 4¤ | 64¤ | 1¤ | 2¤ | 32¤ | 64¤ | 
Nc1nc(N)c2ccc3c(ccn3Cc3ccc(Br)cc3)c2n1 [Example 2, 7-(4-bromobenzyl)-7H-pyrrolo[2,3-h]quinazoline-2,4-diamine] | ≤0.25¤ | 2¤ | ≤0.25¤ | 1¤ | 4¤ | ≤0.25¤ | ≤0.25¤ | 4¤ | >128¤ | 2 (≈ 5.43 µM)
Nc1nc(N)c2ccc3c(ccn3Cc3cccc(Br)c3)c2n1 [Example 3, 7-(3-bromobenzyl)-7H-pyrrolo[2,3-h]quinazoline-2,4-diamine] | 2¤ | 32¤ | 1¤ | >64¤ | >64¤ | 2¤ | 4¤ | >64¤ | >64¤ | 0.5 (≈ 1.36 µM)
N#Cc1cccc(Cn2ccc3c4nc(N)nc(N)c4ccc32)c1 [Example 6, 3-((2,4-diamino-7H-pyrrolo[2,3-h]quinazolin-7-yl)methyl)benzonitrile] | 0.5¤ | 4¤ | ≤0.015¤ | 4¤ | >64¤ | 0.5¤ | ≤0.125¤ | 16¤ | >64¤ | 4 (≈ 12.7 µM)
Nc1nc(N)c2ccc3c(ccn3Cc3ccc(C(F)(F)F)cc3)c2n1 [Example 7, 7-(4-(trifluoromethyl)benzyl)-7H-pyrrolo[2,3-h]quinazoline-2,4-diamine] | ≤0.25¤ | 2¤ | ≤0.015¤ | 2¤ | >64¤ | ≤0.25¤ | ≤0.125¤ | 8¤ | >64¤ | 2 (≈ 5.6 µM)
Nc1nc(N)c2ccc3c(ccn3Cc3ccc(C(=O)c4ccccc4)cc3)c2n1 [Example 16, (4-((2,4-diamino-7H-pyrrolo[2,3-h]quinazolin-7-yl)methyl)phenyl)(phenyl)methanone] | ≤0.25¤ | 4¤ | ≤0.015¤ | 2¤ | >64¤ | ≤0.25¤ | ≤0.125¤ | >64¤ | >64¤ | 4 (≈ 10.2 µM)
Nc1nc(N)c2ccc3c(ccn3Cc3ccc4ccccc4c3)c2n1 [Example 21, 7-(naphthalen-2-ylmethyl)-7H-pyrrolo[2,3-h]quinazoline-2,4-diamine] | 4¤ | >64¤ | 8¤ | >64¤ | >64¤ | 4¤ | 8¤ | >64¤ | >128¤ | 2 (≈ 5.89 µM)
Nc1nc(N)c2ccc3c(ccn3C3C=CCCC3)c2n1 (centres unmarked) [Example 26, 7-(cyclohex-2-en-1-yl)-7H-pyrrolo[2,3-h]quinazoline-2,4-diamine] | 1¤ | 16¤ | <0.125¤ | 16¤ | >64¤ | 1¤ | 2¤ | 64¤ | >128¤ | 4 (≈ 14.3 µM)
Cc1cc2c3nc(N)nc(N)c3ccc2n1Cc1ccc(-c2ccccc2C#N)cc1 [Example 31, 4′-((2,4-diamino-8-methyl-7H-pyrrolo[2,3-h]quinazolin-7-yl)methyl)-[1,1′-biphenyl]-2-carbonitrile] | 0.25¤ | >64¤ | <0.125¤ | >64¤ | >64¤ | 0.5¤ | 0.5¤ | >64¤ | >128¤ | 1 (≈ 2.47 µM)
COc1cc(Cc2cnc(N)nc2N)cc(OC)c1OC [TMP, reference compound] | 0.5¤ | 0.5¤ | <0.125¤ | 0.5¤ | 1¤ | 0.5¤ | 0.25¤ | 2¤ | >64¤ | 
